Measured values as given in patent US8846699B2, “Quinazoline derivatives as a multiplex inhibitor and method for the preparation thereof” (Hanmi Pharm. Co., Ltd., priority 2005, dated 2014).

Legend:
EGFR1 (HER-1) = EGFR1 (HER-1) (Homo sapiens (Human), UniProt P00533); experiment: EGFR1 (HER-1) enzyme assay, fluorescence polarization; format: biochemical; details: 100 μM ATP, poly(Glu, Tyr) substrate
[1] = test system: Human Umbilical Vein Endothelial Cell (HUVEC); experiment: Inhibitory effect on growth of human umbilical vein endothelial cell (HUVEC), MTS; format: cell-based; details: 10 ng/ml VEGF, absorbance 490 nm
VEGFR2 (KDR) = VEGFR2 (KDR) (Homo sapiens (Human), UniProt P35968); experiment: VEGFR2 (KDR) enzyme assay, fluorescence polarization; format: biochemical; details: 5 μM ATP, poly(Glu, Tyr) substrate
VEGFR2 (KDR), sequence (P35968 20-1356): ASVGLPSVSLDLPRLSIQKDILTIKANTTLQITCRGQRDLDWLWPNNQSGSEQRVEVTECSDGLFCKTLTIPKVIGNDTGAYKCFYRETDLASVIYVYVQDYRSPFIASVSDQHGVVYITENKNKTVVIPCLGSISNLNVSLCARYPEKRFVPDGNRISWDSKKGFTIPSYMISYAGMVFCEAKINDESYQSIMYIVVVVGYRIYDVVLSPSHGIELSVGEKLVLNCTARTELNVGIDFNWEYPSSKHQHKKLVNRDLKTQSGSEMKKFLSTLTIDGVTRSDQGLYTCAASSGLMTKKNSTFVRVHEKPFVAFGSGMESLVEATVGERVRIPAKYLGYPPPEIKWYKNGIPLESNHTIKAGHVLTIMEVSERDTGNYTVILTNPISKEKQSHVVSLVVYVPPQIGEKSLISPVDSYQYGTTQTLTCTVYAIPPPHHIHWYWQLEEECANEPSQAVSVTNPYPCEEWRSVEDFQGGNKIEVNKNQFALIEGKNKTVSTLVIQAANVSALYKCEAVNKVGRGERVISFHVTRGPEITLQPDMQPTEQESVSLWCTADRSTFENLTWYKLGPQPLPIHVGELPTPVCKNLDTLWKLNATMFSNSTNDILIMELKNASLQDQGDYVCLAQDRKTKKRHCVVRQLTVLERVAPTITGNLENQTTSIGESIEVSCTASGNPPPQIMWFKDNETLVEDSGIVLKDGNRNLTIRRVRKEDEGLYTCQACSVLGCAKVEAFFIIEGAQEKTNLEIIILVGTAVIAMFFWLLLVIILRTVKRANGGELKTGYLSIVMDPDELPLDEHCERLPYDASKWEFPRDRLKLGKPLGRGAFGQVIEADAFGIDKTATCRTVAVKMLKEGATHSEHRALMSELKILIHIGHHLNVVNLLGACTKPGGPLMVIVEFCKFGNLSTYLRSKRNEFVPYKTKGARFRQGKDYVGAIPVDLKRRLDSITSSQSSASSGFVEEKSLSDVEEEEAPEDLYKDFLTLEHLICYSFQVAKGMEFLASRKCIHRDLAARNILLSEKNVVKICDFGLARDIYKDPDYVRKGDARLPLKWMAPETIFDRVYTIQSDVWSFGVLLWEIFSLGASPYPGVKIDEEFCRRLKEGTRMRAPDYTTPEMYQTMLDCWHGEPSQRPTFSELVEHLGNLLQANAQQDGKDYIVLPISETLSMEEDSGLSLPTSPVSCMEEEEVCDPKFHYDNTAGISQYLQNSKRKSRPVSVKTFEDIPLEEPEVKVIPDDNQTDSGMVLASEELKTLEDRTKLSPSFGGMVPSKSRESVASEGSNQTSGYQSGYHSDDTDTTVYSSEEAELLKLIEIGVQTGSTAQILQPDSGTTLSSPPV
Procedure, shortened: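 Buffer: 20 mM HEPES pH 7.4 with 5 mM MgCl2, 2 mM MnCl2 and 50 μM Na3VO4. Compound (0.0001–10 μM) was premixed 10 min with VEGFR2 (200 ng/10 μl), then poly(Glu,Tyr) substrate (10 ng/ml) and 5 μM ATP were added for 1 h at room temperature. EDTA-quenched samples were read by FP after 30 min with antibody and tracer.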

[2] = test system: colon and rectal cancer cell line, SW-620; experiment: Inhibitory effect on growth of cancer cell line SW-620, SRB; format: cell-based; details: not having overexpressed EGFR and EGFR2
Procedure, shortened: (§1)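 Growth inhibition was measured by sulforhodamine-B staining (absorbance 570 nm) of TCA-fixed cells after 72 h compound exposure at 37 °C, 5% CO2. Test concentrations ran from 10 μM in 10-fold steps to 10^−4, with DMSO below 1%, in 10% FBS DMEM.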

[3] = test system: breast cancer cell line, SK-Br3; experiment: Inhibitory effect on growth of cancer cell line SK-Br3, SRB; format: cell-based; details: overexpressed EGFR2 (HER-2)
Procedure, shortened: as §1

[4] = test system: skin cancer cell line, A431; experiment: Inhibitory effect on growth of cancer cell line A431, SRB; format: cell-based; details: overexpressed EGFR1 (HER-1)
Procedure, shortened: as §1

Compound	IC50 (EGFR1 (HER-1)) [nM]	IC50 ([1]; Homo sapiens, 96 h) [nM]	IC50 (VEGFR2 (KDR)) [nM]	IC50 ([2]; Homo sapiens, 72 h) [nM]	IC50 ([3]; Homo sapiens, SK-BR-3, 72 h) [nM]	IC50 ([4]; Homo sapiens, A-431, 72 h) [nM]	IC50 ([1]; 96 hours) [nM]	IC50 ([2]; 72 hours) [nM]	IC50 ([3]; 72 hours) [nM]	IC50 ([4]; 72 hours) [nM]
C=CC(=O)Nc1cc2c(Nc3ccc(Br)cc3F)ncnc2cc1OCCNC(=O)OC [Example 63, {2-[6-acryloylamino-4-(4-bromo-2-fluoro-phenylamino)-quinazolin-7-yloxy]-ethyl}-carbamic acid methylester]	158	102	84	10000	198	140	–	–	–	–
N-{2-[6-acryloylamino-4-(4-bromo-2-fluoro-phenylamino)-quinazolin-7-yloxy]-ethyl}-butylamide [Example 51]	32	–	954	–	–	–	987	10000	194	33
C=CC(=O)Nc1cc2c(Nc3ccc(Br)cc3F)ncnc2cc1OCCNC(=O)CN1CCN(C)CC1 [Example 102, N-(4-(4-bromo-2-fluoro-phenylamino)-7-{2-[2-(4-methyl-piperazin-1-yl)-acetylamino]-ethoxy}-quinazolin-6-yl)-acrylamide]	12	682	654	727	112	15	–	–	–	–
C=CC(=O)Nc1cc2c(Nc3ccc(Br)cc3F)ncnc2cc1OCCNC(=O)C1CC1 [Example 21, cyclopropane carboxylic acid {2-[6-acrylamino-4-(4-bromo-2-fluoro-phenylamino)-quinazolin-7-yloxy]-ethyl}-amide]	8	951	513	7900	36	20	–	–	–	–
C=CC(=O)Nc1cc2c(Nc3ccc(Br)cc3F)ncnc2cc1OCCNC(=O)C(C)CN(C)C (stereo not drawn) [Example 74, N-{4-(4-bromo-2-fluoro-phenylamino)-7-[2-(3-dimethylamino-2-methyl-propionylamino)-ethoxy]-quinazolin-6-yl}-acrylamide]	251	358	372	726	658	321	–	–	–	–
C=CCNC(=O)NCCOc1cc2ncnc(Nc3ccc(Br)cc3F)c2cc1NC(=O)C=C [Example 40, N-[7-[2-(3-allyl-ureido)-ethoxy]-4-(4-bromo-2-fluoro-phenylamino)-quinazolin-6-yl]-acrylamide]	19	268	155	10000	166	13	–	–	–	–
C=CC(=O)Nc1cc2c(Nc3ccc(Br)cc3F)ncnc2cc1OCC(=O)NCCN(CC)CC [Example 65, N-{4-(4-bromo-2-fluoro-phenylamino)-7-[(2-diethylamino-ethylcarbamoyl)-methoxy]-quinazolin-6-yl}-acrylamide]	652	964	954	10000	694	596	–	–	–	–
C=CC(=O)Nc1cc2c(Nc3c(F)cc(Br)cc3F)ncnc2cc1OCC1CCN(C(C)=O)CC1 [Example 8, N-[7-(1-acetyl-piperidin-4-ylmethoxy)-4-(4-bromo-2,6-difluoro-phenylamino)-quinazolin-6-yl]-acrylamide]	13	98	148	2530	149	20	–	–	–	–
C=CC(=O)NCCOc1cc2ncnc(Nc3ccc(Br)cc3F)c2cc1NC(=O)C=C [Example 26, N-{2-[6-acryloylamino-4-(4-bromo-2-fluoro-phenylamino)-quinazolin-7-yloxy]-ethyl}-acrylamide]	5	87	250	10000	80	49	–	–	–	–
C=CC(=O)Nc1cc2c(Nc3ccc(Br)cc3F)ncnc2cc1OCC1CCN(C(=O)NCC)CC1 [Example 171, 4-[6-acryloylamino-4-(4-bromo-2-fluoro-phenylamino)-quinazolin-7-yloxymethyl]-piperidine-1-carboxylic acid ethylamide]	20	150	136	10000	147	25	–	–	–	–
C=CC(=O)Nc1cc2c(Nc3cc(Cl)c(Cl)cc3F)ncnc2cc1OCCNC(=O)CS(C)(=O)=O [Example 139, N-{4-(4,5-dichloro-2-fluoro-phenylamino)-7-[2-(2-methanesulfonyl-acetylamino)-ethoxy]-quinazolin-6-yl}-acrylamide]	40	682	657	2830	109	48	–	–	–	–
C=CC(=O)Nc1cc2c(Nc3ccc(Br)cc3F)ncnc2cc1OCCNC(=S)NCC [Example 36, N-{4-(4-bromo-2-fluoro-phenylamino)-7-[2-(3-ethyl-thioureido)-ethoxy]-quinazolin-6-yl}-acrylamide]	91	389	354	722	43	89	–	–	–	–
N-{2-[6-acryloylamino-4-(4-bromo-2-fluoro-phenylamino)-quinazolin-7-yloxy]-ethyl}-3-dimethylamino-butylamide [Example 75]	325	–	658	–	–	–	690	2660	658	452
C=CC(=O)Nc1cc2c(Nc3ccc(Br)cc3F)ncnc2cc1OCCNc1nccs1 [Example 90, N-{4-(4-bromo-2-fluoro-phenylamino)-7-[2-(thiazol-2-ylamino)-ethoxy]-quinazolin-6-yl}-acrylamide]	295	589	477	10000	1280	310	–	–	–	–
C=CC(=O)Nc1cc2c(Nc3ccc(Br)cc3F)ncnc2cc1OCCNC(=O)C=CCN(C)C [Example 53, 4-dimethylamino-but-2-enoic acid {2-[6-acryloylamino-4-(4-bromo-2-fluoro-phenylamino)-quinazolin-7-yloxy]-ethyl}-amide]	16	964	875	4760	223	12	–	–	–	–
C=CC(=O)Nc1cc2c(Nc3ccc(Br)c(F)c3F)ncnc2cc1OCCNC(=O)CN(C)C [Example 124, N-{4-(4-bromo-2,3-difluoro-phenylamino)-7-[2-(2-dimethylamino-acetylamino)-ethoxy]-quinazolin-6-yl}-acrylamide]	18	268	136	2680	60	19	–	–	–	–
C=CC(=O)Nc1cc2c(Nc3ccc(Br)cc3F)ncnc2cc1OCCNC(=O)c1cccs1 [Example 92, thiophene-2-carboxylic acid {2-[6-acryloylamino-4-(4-bromo-2-fluoro-phenylamino)-quinazolin-7-yloxy]-ethyl}-amide]	47	258	129	729	437	57	–	–	–	–
C=CC(=O)Nc1cc2c(Nc3ccc(Br)cc3F)ncnc2cc1OCCNC(=O)CCN1CCCCC1 [Example 104, N-{4-(4-bromo-2-fluoro-phenylamino)-7-[2-(3-piperidin-1-yl-propionylamino)-ethoxy]-quinazolin-6-yl}-acrylamide]	14	855	945	5260	93	16	–	–	–	–
C=CC(=O)Nc1cc2c(Nc3ccc(Br)cc3F)ncnc2cc1OCCNC(=O)CC [Example 27, N-[4-(4-bromo-2-fluoro-phenylamino)-7-(2-propionylamino-ethoxy)-quinazolin-6-yl]-acrylamide]	3	96	250	9560	50	30	–	–	–	–
C=CC(=O)Nc1cc2c(Nc3ccc(Br)cc3F)ncnc2cc1OCCNC(=O)C=CC [Example 50, but-2-enoic acid {2-[6-acryloylamino-4-(4-bromo-2-fluoro-phenylamino)-quinazolin-7-yloxy]-ethyl}-amide]	19	101	66	9570	71	15	–	–	–	–
C=CC(=O)Nc1cc2c(Nc3cc(OC)c(Cl)cc3OC)ncnc2cc1OCCNC(C)=O [Example 172, N-[7-(2-acetylamino-ethoxy)-4-(4-chloro-2,5-dimethoxy-phenylamino)-quinazolin-6-yl]-acrylamide]	87	125	90	10000	3300	91	–	–	–	–
C=CC(=O)Nc1cc2c(Nc3ccc(Br)cc3F)ncnc2cc1OCC1CCN(C(=O)C=C)CC1 [Example 5, N-[7-(1-acryloyl-piperidin-4-ylmethoxy)-4-(4-bromo-2-fluoro-phenylamino)-quinazolin-6-yl]-acrylamide]	3	34	203	2350	241	37	–	–	–	–
